Activity calls are given as the source filed them. The calls are words filed in the database; no cut-off is given here.
Assays:
[Chlorella] fusca = Antimicrobial activity against Chlorella fusca at 50 ug by agar plate diffusion assay; assay type: functional; details: Scenedesmus fuscus; read-out: IZ
Microbotryum violaceum = assay: Antimicrobial activity against Ustilago violacea at 50 ug by agar plate diffusion assay; assay type: functional; details: read-out: IZ
[1] = molecular target: Tyrosine-protein kinase Lck (Homo sapiens) (UniProt P06239); assay: Inhibition of tyrosine kinase lckp56 by ELISA
Sequence of Tyrosine-protein kinase Lck (Homo sapiens) (P06239 2-509 limits assumed): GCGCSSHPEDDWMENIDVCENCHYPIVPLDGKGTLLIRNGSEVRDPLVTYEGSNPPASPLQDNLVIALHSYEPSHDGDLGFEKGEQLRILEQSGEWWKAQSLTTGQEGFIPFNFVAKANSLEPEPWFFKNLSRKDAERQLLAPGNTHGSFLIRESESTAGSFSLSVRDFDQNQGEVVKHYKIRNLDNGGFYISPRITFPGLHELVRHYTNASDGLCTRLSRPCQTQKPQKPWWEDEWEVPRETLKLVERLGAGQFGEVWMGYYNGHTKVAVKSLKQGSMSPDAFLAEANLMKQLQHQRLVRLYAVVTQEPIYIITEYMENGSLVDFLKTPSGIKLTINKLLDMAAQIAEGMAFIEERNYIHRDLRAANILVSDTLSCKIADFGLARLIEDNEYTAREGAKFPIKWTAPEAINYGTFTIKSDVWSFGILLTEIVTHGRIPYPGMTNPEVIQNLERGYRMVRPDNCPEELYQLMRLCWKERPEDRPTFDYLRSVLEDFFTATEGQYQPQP

[2] = molecular target: Human immunodeficiency virus type 1 reverse transcriptase (Human immunodeficiency virus 1) (UniProt Q72547); assay: Inhibition of HIV1 reverse transcriptase by ELISA

Row | SMILES | zone of inhibition at 50 µg/disc ([Chlorella] fusca) [mm] | zone of inhibition at 50 µg/disc (Microbotryum violaceum) [mm] | Activity [1] | Activity [2]
1 | CC1=C2CC/C(C)=C/CC[C@@]3(C)O[C@H]3CC/C(C)=C/[C@@H]2OC1 | 3 | 3 | inactive | inactive
2 | COC(=O)C(C)/C1=C/C=C(\C)CC[C@H]2O[C@]2(C)CC/C=C(\C)CC1 (some centres not stated) |  | 1 | inactive | inactive
